In patent US7285543B2, “Purine inhibitors of fructose-1,6-bisphosphatase” (Metabasis Therapeutics, Inc., priority 1997, dated 2007):

Experiments:
[1] = target: T1, Glycogen Phosphorylase (rabbit muscle) (Oryctolagus cuniculus, UniProt P00489); assay: AMP site/enzyme selectivity: glycogen phosphorylase
T1 sequence (P00489 2-843 limits assumed): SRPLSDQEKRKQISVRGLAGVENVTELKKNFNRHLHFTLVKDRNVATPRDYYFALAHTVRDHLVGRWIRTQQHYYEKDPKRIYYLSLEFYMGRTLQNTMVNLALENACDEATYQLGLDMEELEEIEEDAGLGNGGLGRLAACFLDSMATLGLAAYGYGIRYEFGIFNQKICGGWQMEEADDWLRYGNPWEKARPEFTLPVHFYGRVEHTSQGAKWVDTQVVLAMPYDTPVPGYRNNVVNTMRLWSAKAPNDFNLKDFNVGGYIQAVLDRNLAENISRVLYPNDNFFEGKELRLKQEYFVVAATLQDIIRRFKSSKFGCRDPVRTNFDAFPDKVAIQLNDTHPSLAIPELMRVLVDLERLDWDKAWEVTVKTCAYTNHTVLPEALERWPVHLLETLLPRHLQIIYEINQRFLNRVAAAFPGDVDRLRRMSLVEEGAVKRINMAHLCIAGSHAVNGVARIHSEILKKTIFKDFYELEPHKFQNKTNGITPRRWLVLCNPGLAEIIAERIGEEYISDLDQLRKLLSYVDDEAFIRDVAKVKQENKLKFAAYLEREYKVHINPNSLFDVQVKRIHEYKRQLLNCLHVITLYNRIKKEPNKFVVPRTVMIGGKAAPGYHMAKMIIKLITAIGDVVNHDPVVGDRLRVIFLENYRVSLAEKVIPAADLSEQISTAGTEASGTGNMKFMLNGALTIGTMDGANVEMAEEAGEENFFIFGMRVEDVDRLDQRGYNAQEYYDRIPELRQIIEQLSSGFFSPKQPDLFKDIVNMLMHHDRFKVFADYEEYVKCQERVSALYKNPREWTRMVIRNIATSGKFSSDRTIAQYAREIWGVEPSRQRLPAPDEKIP
Protocol: To determine the selectivity of compounds towards FBPase, effects of FBPase inhibitors on 5 key AMP binding enzymes were measured using the assays described below: • Adenosine Kinase: Human adenosine kinase was purified from an E. coli expression system as described by Spychala et al. (Spychala, J., Datta, N. S., Takabayashi, K., Datta, M., Fox, I. H., Gribbin, T., and Mitchell, B. S. Proc. Natl. Acad. Sci. USA 1996, 93, 1232-1237). Activity was measured essentially as described by Yamada et al. (Yamada, Y., Goto, H., Ogasawara, N. Biochim. Biophys. Acta 1988, 660, 36-43.) with a few minor modifications. Assay mixtures contained 50 mM TRIS-maleate buffer, pH 7.0, 0.1% BSA, 1 mM ATP 1 mM MgCl2, 1.0 μM [U-^14C] adenosine (400-600 mCi/mmol) and varying duplicate concentrations of inhibitor. ^14C-AMP was separated from unreacted ^14C-adenosine by absorption to anion exchange paper (Whatman) and quantified by scintillation counting. • Adenosine Monophosphate Deaminase: Porcine heart AMPDA was purified essentially as described by Smiley et al. (Smiley, K. L., Jr, Berry, A. J., and Suelter, C. H. J. Biol. Chem. 1967, 242, 2502-2506) through the phosphocellulose step. Inhibition of AMPDA activity was determined at 37° C. in a 0.1 mL assay mixture containing inhibitor, ˜0.005U AMPDA, 0.1% bovine serum albumin, 10 mM ATP, 250 mM KCl, and 50 mM MOPS at pH 6.5. […]

[2] = system: rat hepatocytes; assay: Inhibition of gluconeogenesis (glucose production from lactate/pyruvate) in rat hepatocytes; assay type: cell-based; settings: for IC50: from lactate/pyruvate, isolated rat hepatocytes
Protocol: Hepatocytes were prepared from overnight fasted Sprague-Dawley rats (250-300 g) according to the procedure of Berry and Friend (Berry, M. N., Friend, D. S., J. Cell. Biol. 1969, 43, 506-520) as modified by Groen (Groen, […]., Eur. J. Biochem. 1982, 122, 87-93). […] Incubations were carried out in a 95% oxygen, 5% carbon dioxide atmosphere in closed, 50-mL Falcon tubes submerged in a rapidly shaking water bath (37° C.). After 1 hour, an aliquot (0.25 mL) was removed, transferred to an Eppendorf tube and centrifuged. 50 μl of supernatant was then assayed for glucose content using a Sigma Glucose Oxidase kit as per the manufacturer's instructions.

[3] = target: T2, Adenylate Kinase (rabbit muscle) (Oryctolagus cuniculus, UniProt P00569); assay: AMP site/enzyme selectivity: adenylate kinase; assay type: biochemical; settings: selectivity table; read-out: Adenylate Kinase (inh.)
T2 construct: purchased Sigma
T2 sequence (P00569 1-194): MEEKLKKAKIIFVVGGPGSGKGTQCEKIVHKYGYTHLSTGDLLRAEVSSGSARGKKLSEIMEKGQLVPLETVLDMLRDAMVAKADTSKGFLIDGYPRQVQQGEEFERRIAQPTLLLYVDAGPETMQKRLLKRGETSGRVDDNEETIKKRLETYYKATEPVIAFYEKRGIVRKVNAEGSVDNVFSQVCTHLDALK

[4] = target: T3, human liver FBPase (Homo sapiens, UniProt P09467); assay: Inhibition of human liver FBPase (coupled spectrophotometric assay); assay type: biochemical
T3 construct: made in house; host or cells: E. coli BL21
T3 sequence (P09467 2-338 limits assumed): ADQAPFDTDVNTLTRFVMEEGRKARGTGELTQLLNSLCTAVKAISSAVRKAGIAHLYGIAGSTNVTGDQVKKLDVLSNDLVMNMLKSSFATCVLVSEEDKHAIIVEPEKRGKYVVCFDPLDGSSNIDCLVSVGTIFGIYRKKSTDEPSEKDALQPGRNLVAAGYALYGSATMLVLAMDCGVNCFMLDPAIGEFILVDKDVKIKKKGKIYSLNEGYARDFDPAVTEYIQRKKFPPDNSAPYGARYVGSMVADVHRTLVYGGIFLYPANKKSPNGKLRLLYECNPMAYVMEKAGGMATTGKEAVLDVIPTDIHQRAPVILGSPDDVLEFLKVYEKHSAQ

[5] = target: T4, Human adenosine kinase (Homo sapiens, UniProt P55263); assay: AMP site/enzyme selectivity: adenosine kinase; assay type: biochemical; settings: selectivity table; read-out: Adenosine Kinase (inh.)
T4 construct: made in house; host or cells: E. coli

[6] = target: T5, mouse liver FBPase (Mus musculus, UniProt Q9QXD6); assay: In vitro inhibition of mouse liver FBPase; assay type: biochemical
T5 construct: This partially purified fraction was used for enzyme assays; from tissue; host or cells: mouse liver
T5 sequence (Q9QXD6 2-338 limits assumed): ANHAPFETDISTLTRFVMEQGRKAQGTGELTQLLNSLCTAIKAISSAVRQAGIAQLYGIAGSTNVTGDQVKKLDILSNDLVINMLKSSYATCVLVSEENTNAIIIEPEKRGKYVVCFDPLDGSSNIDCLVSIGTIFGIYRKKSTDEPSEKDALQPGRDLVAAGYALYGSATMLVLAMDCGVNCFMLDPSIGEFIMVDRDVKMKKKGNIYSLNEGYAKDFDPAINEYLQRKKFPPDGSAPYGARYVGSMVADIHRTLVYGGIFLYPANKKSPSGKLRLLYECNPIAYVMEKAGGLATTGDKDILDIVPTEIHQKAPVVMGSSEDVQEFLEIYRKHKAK
Protocol: (§1) Mouse liver FBPase was obtained by homogenizing freshly isolated mouse liver in 100 mM Tris-HCl buffer, pH 7.4, containing 1 mM EGTA, and 10% glycerol. […] This fraction was redissolved in the homogenization buffer and desalted on a PD-10 gel filtration column (Biorad) eluted with same. This partially purified fraction was used for enzyme assays. Both rat liver and mouse liver FBPase were assayed as described for human liver FBPase.

[7] = target: T6, rat liver FBPase (Rattus norvegicus, UniProt P19112); assay: In vitro inhibition of rat liver FBPase; assay type: biochemical
T6 construct: made in house; host or cells: E. coli BL21
T6 sequence (P19112 2-363 limits assumed): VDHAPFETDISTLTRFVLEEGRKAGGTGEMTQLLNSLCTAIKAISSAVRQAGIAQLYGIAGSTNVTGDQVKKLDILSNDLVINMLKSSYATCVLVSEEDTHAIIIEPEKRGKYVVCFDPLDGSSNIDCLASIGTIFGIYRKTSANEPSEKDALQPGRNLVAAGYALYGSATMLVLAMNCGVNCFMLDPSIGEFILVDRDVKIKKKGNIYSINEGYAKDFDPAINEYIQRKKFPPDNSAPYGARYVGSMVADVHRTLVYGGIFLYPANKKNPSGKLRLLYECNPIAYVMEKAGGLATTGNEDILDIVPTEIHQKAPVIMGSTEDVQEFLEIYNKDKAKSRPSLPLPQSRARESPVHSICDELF
Protocol: as §1

[8] = system: 18 hours fasted Sprague Dawley rats; assay: Blood glucose lowering in fasted rats; assay type: in vivo, rat; settings: 35, 45, and 60 mg/kg intraperitoneally, result in words
Protocol: The vehicle used for drug administration was dimethylsulfoxide. Blood samples were obtained from the tail vein of conscious animals just prior to injection and then at half-hourly intervals. Blood glucose was measured using a HemoCue Inc. glucose analyzer according to the instructions of the manufacturer.

[9] = Estimation of the oral bioavailability of prodrugs of phosphonic acids (urinary recovery); assay type: in vivo, rat
Protocol: Prodrugs were dissolved in 10% ethanol/90% polyethylene glycol (mw 400) and administered by oral gavage at doses of approximately 20 or 40 mg/kg parent compound equivalents to 6-hour fasted, Sprague Dawley rats (220-240 g). The rats were subsequently placed in metabolic cages and urine was collected for 24 hours. The quantity of parent compound excreted into urine was determined by HPLC analysis. An ODS column eluted with a gradient from potassium phosphate buffer, pH 5.5 to acetonitrile was employed for these measurements. Detection was at 310-325 nm. […] Parent compounds were typically dissolved in dimethyl sulfoxide, and administered via the tail vein in animals that were briefly anesthetized with halothane.

[10] = system: rat hepatocytes; settings: 10 μM prodrug, within 10 minutes
Protocol: Rat hepatocytes were prepared and incubated as in Example D, except that the test compound, 16.4, was added to yield a final concentration of 10 μM. Aliquots of the cell suspension were taken at 0, 5, 10, 20, 30, 45, and 60 minutes after drug exposure.

[11] = Analysis of drug levels in plasma and liver of rats; assay type: in vivo, rat; settings: 20 mgs/kg intraperitoneally, one hour post injection
[12] = system: 18 hours fasted Sprague-Dawley rats; assay: Blood glucose and liver fructose-1,6-bisphosphate accumulation in fasted rats; assay type: in vivo, rat; settings: 20 mgs/kg intraperitoneally
[13] = system: rat hepatocytes; assay: Gluconeogenesis from dihydroxyacetone in rat hepatocytes: glucose production and fructose 1,6-bisphosphate accumulation; assay type: cell-based
Protocol: Isolated rat hepatocytes were prepared as described in Example D and incubated under the identical conditions described except that lactate/pyruvate was replaced by 10 mM dihydroxyacetone, a substrate which feeds into the gluconeogenic pathway at a step just prior to FBPase. Reactions were terminated by removing an aliquot (250 μL) of cell suspension and spinning it through a layer of oil (0.8 mL silicone/mineral oil, 4/1) into a 10% perchloric acid layer (100 μL). […] After thorough mixing and centrifugation, the supernatant was analyzed for glucose content as described in Example D, and also for fructose-1,6-bisphosphate. Fructose-1,6-bisphosphate was assayed spectrophotometrically by coupling its enzymatic conversion to glycerol 3-phosphate to the oxidation of NADH, which was monitored at 340 nm. Reaction mixtures (1 mL) consisted of 200 mM Tris-HCl, pH 7.4, 0.3 mM NADH, 2 units/mL glycerol 3-phosphate dehydrogenase, 2 units/mL triosephosphate isomerase, and 50-100 μl cell extract. After a 30 minute preincubation at 37° C., 1 unit/mL of aldolase was added and the change in absorbance measured until a stable value was obtained. 2 moles of NADH are oxidized in this reaction per mole of fructose-1,6-bisphosphate present in the cell extract.

[14] = system: Zucker Diabetic Fatty rats; assay: Inhibition of gluconeogenesis (14C-bicarbonate incorporation into glucose) in Zucker Diabetic Fatty rats; assay type: in vivo, rat; settings: 50 mg/kg intraperitoneal
Protocol: Blood samples (0.6 mL) were obtained by cardiac puncture 10 and 20 minutes post tracer injection. Blood (0.5 mL) was diluted into 6 mL deionized water and protein precipitated by addition of 1 mL zinc sulfate (0.3 N) and 1 mL barium hydroxide (0.3 N). The mixture was centrifuged (20 minutes, 1000×g) and 5 mL of the resulting supernatant was then combined with 1 g of a mixed bed ion exchange resin (1 part AG 50W-X8, 100-200 mesh, hydrogen form and 2 parts of AG 1-X8, 100-200 mesh, acetate form) to separate ^14C-bicarbonate from ^14C-glucose. The slurry was shaken at room temperature for four hours and then allowed to settle. An aliquot of the supernatant (0.5 mL) was then counted in 5 mL scintillation cocktail.

[15] = system: Zucker Diabetic Fatty rats; assay: Blood glucose lowering in Zucker Diabetic Fatty rats; assay type: in vivo, rat; settings: 50 mg/kg intraperitoneal, 2 hours post dose, 24-hour fasted
Protocol: Zucker Diabetic Fatty rats purchased at 7 weeks of age were used at age 16 weeks in the 24-hour fasted state. The rats were purchased from Genetics Models Inc. and fed the recommended Purina 5008 diet (6.5% fat). Their fasting hyperglycemia at 24 hours ranged from 150 mg/dL to 310 mg/dL blood glucose.
The stock solution was made up at […] in deionized water and adjusted to neutrality by dropwise, addition of 5 N NaOH. 5 control animals were dosed with saline. Blood glucose was measured at the time of dosing and 2 hours post dose as described in Example F.

T4 sequence (P55263 1-345 isoform P55263-2): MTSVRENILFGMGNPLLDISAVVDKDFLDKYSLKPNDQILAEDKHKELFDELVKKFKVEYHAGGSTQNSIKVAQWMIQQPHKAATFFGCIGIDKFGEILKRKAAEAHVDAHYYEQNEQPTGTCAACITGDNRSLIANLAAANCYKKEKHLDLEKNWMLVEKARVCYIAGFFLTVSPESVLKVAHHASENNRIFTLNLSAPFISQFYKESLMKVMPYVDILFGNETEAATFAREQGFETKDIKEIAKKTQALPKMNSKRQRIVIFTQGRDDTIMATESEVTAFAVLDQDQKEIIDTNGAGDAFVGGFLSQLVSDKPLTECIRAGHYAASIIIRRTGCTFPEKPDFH

Nc1ncnc2c1nc(-c1ccc(P(=O)(O)O)o1)n2CCc1ccccc1 [Compound 2.1, N^9-(2-phenethyl)-8-(2-(5-phosphono)furanyl)adenine]
EC50 [1]: > 250 µM
IC50 ([2]; Hepatocyte): 90 µM
IC50 [3]: > 500 µM
IC50 [4]: 5 µM
IC50 [5]: > 10 µM
IC50 [6]: > 20 µM
IC50 [7]: 100 µM

CC(C)C(=O)OCOP(=O)(OCOC(=O)C(C)C)c1ccc(-c2nc3c(N)ncnc3n2CC(C)(C)C)o1 [Compound 16.4, 6-Amino-9-neopentyl-8-(2-(5-diisobutyrylmethylphosphono)furanyl)-purine]
IC50 [2]: 3 µM
glucose production in rat hepatocytes (FIG. 11B) ([2]; result in words): inhibited glucose production
blood glucose lowering (FIG. 6) [8]: profound glucose lowering
oral dose recovered in urine (as parent compound) ([9]; oral, approximately 20 mg/kg, 24 hours urine): 6.2%
oral bioavailability ([9]; rat, estimated from urinary recovery vs intravenous parent): approximately 8%
intracellular concentration of compound 2.7 [10]: approximately 80 nmoles/g

CC(C)(C)Cn1c(-c2ccc(P(=O)(O)O)o2)nc2c(N)ncnc21 [Compound 2.7, N^9-neopentyl-8-(2-(5-phosphono)furanyl)adenine]
IC50 ([2]; Hepatocyte): 4.5 µM
IC50 [3]: > 500 µM
drug level in liver [11]: 51.3 ± 10 nmol/g
concentration at 1 h ([11]; Sprague-Dawley, rat, plasma, ip, 20 mg/kg, read-out: drug level in plasma): 38.5 ± 7 µM
elevation of fructose-1,6-bisphosphate levels in liver ([12]; one hour post injection): 10 fold
blood glucose after treatment ([12]; within one hour, lowered from 82±3): 28 ± 9.9 mg/dL
IC50 ([13]; Hepatocyte, 10 mM dihydroxyacetone, rat hepatocytes): ~5 µM
accumulation of fructose-1,6-bisphosphate in hepatocytes (FIG. 4B) ([13]; dihydroxyacetone, result in words): dose-dependent accumulation of fructose-1,6-bisphosphate
reduction of incorporation of 14C-bicarbonate into glucose [14]: 75%
blood glucose lowered, average [15]: ~20%
intravenous dose recovered in urine ([9]; intravenous, approximately 10 mg/kg, 24 hours urine): 76.8%
